Experimental data taken from US12161745B2, “Peptides and compositions for use in cosmetics” (LIPOTRUE, S.L., priority 2019, dated 2024).
Where a SMILES comes first, the peptide text is derived from it. The star is where a group is joined. Palmitoyl = CCCCCCCCCCCCCCCC(=O)*

Columns and labels:
Assay type in all cases: cell-based
[1] = tested on: HDFa (Human Dermal Fibroblasts, adult) cells; experiment: MTT viability assay (cytotoxicity) in HDFa cells; conditions: 0.001-0.01 mg/mL, 24 h, vs basal state
Method: (§1) The cytotoxicity of peptide Pal-SEQ ID NO: 1-NH2 was analysed by means of viability assay in HEKa (Human Epidermal Keratinocytes, adult) and HDFa (Human Dermal Fibroblasts, adult) cells.
(§2) Cytotoxicity was assessed by means of the MTT assay. Briefly HEKa and HDFa cells were seeded in 96-well plates at a concentration of 1×10^5 cells/mL and incubated in Epilife Medium supplemented with 1% (v/v) EDGS and 1% (v/v) of Penicillin/Streptomycin (for HEKa cells) and Medium 106 supplemented with 2% (v/v) of Low Serum Growth Supplement (LSGS) (for HDFa cells) for 24 h at 37° C., 5% CO2 and saturated humidity. Cells were then treated with different concentrations of peptide Pal-SEQ ID NO: 1-NH2 (0.001 mg/mL, 0.005 mg/mL, 0.01 mg/mL, 0.05 mg/mL, and 0.1 mg/mL for HEKa cells; and 0.001 mg/mL, 0.005 mg/mL and 0.01 mg/mL for HDFa cells) in triplicates, for MTT evaluation. […] The plates were placed on a shaker for 5 minutes for complete solubilisation of the crystals and then the absorbance at 450 nm of each well was determined using the microplate reader Multiskan FC, which is directly proportional to the number of living cells in culture. Absorbance values were normalized using the data obtained for non-treated cells (basal state).

[2] = tested on: HEKa (Human Epidermal Keratinocytes, adult) cells; experiment: MTT viability assay (cytotoxicity) in HEKa cells; conditions: 0.001-0.1 mg/mL, 24 h, vs basal state
Method: as §1, §2

[3] = tested on: human organotypical skin explant cultures (hOSECs); experiment: LDH cytotoxicity assay in human organotypical skin explant cultures
Method: (§3) In this case healthy and aged human organotypical skin explant cultures (hOSECs) were used as experimental systems.
(§4) The aged hOSEC was obtained by exposition of the healthy hOSEC to hydrocortisone (5 μg/mL) for the first five days of the study.
The total number of treatment groups was as follows: • 1. Control group (negative control): Untreated hOSEC. • 2. Aged hOSEC: hOSECs treated with hydrocortisone at 5 μg/mL (Abraham A, Roga G. (2014) Topical steroid-damaged skin. Indian J Dermatol. 59(5), 456-9.) • 3. Aged hOSEC+Product A (cream, this is, placebo): hOSECs treated with hydrocortisone at 5 μg/mL and incubated with product A (10 μL). • 4. […]
The LDH Cytotoxicity test is a colorimetric assay that quantitatively measures lactate dehydrogenase (LDH), a stable cytosolic enzyme that is released into the culture medium supernatant upon damage of the cytoplasmic membrane. The released LDH in culture medium supernatants is measured for 30 minutes coupled enzymatic reaction: LDH oxidizes lactate to pyruvate which then reacts with the tetrazolium salt WST-1 to form formazan. The increase in the amount of formazan measured in the culture supernatant directly correlates to the increase in the number of lysed cells (damage) in the skin explant. […]
The results of this assay were calculated considering the negative control, this is, untreated hOSEC as 100% of the LDH normal concentration.

[4] = tested on: human organotypical skin explant cultures (hOSECs); experiment: Resazurin assay in human organotypical skin explant cultures; conditions: 5 μg/mL
Method: as §3, §4
The total number of treatment groups was as follows: • 1. Control group (negative control): Untreated hOSEC. • 2. Aged hOSEC: hOSECs treated with hydrocortisone at 5 μg/mL (Abraham A, Roga G. (2014) Topical steroid-damaged skin. Indian J Dermatol. 59(5), 456-9.) • 3. Aged hOSEC+Product A (cream, this is, placebo): hOSECs treated with hydrocortisone at 5 μg/mL and incubated with product A (10 μL). • 4. Aged hOSEC+Product B (cream with Pal-SEQ ID NO: 1-NH2 at a concentration of 0.005 mg/mL): hOSECs treated with hydrocortisone at 5 μg/mL and incubated with Product B (10 μL).
The total duration of the assay was of 10 days (days 1 to 10). Hydrocortisone was applied in the appropriate or corresponding groups each day on days 1 to 5. […]
For the resazurin assay, the skin explants were treated with 6 μM of resazurin in NaCl solution for 1 hour. […] The resorufin formed was quantified in a fluorometer plate reader.
The fluorescent signal was monitored using 530-560 nm excitation wavelength and 590 nm emission wavelength.
The results of the resazurin assay were calculated considering the negative control, untreated healthy hOSECs, as 100% viability. […]

Compound | viability of HDFa cells [1] | viability of HEKa cells [2] | toxicity deduced from LDH cytotoxicity assay and resazurin assay ([3]; cream with 0.005 mg/mL peptide on aged hOSEC) | adverse effect in hOSECs (LDH, plasma membrane damage) ([3]; hydrocortisone 5 μg/mL, days 1 to 5) | reduction of Resorufin percentage with respect to the Control group [4]
CCCCCCCCCCCCCCCC(=O)N[C@@H](Cc1c[nH]cn1)C(=O)N[C@@H](Cc1ccc(O)cc1)C(=O)N[C@@H](CCCNC(=N)N)C(=O)N[C@@H](C)C(N)=O [Pal-SEQ ID NO: 1-NH2, Pal-His-Tyr-Arg-Ala-NH2] (Palmitoyl-HYRA-NH2) | did not alter viability | did not alter viability | not toxic | – | –
C[C@]12CCC(=O)C=C1CC[C@@H]1[C@@H]2[C@@H](O)C[C@@]2(C)[C@H]1CC[C@]2(O)C(=O)CO [hydrocortisone, reference compound] | – | – | – | did not produce any adverse effect | 10%
